Reference: patent US7915420B2, “Aryl piperidine amides” (Janssen Pharmaceutica NV, priority 2003, dated 2011)

Molecular target: T1, human glycine transporter-2 (GlyT2) (Homo sapiens, UniProt Q9Y345)
T1 construct: The entire coding region of the human GlyT2 cDNA was cloned into the mammalian expression vector pCINeo; expressed in transfected cells; host or cells: Cos-7 cells (African green monkey kidney), stably transfected, vector pCINeo, G418 selection
T1 sequence (Q9Y345 1-797): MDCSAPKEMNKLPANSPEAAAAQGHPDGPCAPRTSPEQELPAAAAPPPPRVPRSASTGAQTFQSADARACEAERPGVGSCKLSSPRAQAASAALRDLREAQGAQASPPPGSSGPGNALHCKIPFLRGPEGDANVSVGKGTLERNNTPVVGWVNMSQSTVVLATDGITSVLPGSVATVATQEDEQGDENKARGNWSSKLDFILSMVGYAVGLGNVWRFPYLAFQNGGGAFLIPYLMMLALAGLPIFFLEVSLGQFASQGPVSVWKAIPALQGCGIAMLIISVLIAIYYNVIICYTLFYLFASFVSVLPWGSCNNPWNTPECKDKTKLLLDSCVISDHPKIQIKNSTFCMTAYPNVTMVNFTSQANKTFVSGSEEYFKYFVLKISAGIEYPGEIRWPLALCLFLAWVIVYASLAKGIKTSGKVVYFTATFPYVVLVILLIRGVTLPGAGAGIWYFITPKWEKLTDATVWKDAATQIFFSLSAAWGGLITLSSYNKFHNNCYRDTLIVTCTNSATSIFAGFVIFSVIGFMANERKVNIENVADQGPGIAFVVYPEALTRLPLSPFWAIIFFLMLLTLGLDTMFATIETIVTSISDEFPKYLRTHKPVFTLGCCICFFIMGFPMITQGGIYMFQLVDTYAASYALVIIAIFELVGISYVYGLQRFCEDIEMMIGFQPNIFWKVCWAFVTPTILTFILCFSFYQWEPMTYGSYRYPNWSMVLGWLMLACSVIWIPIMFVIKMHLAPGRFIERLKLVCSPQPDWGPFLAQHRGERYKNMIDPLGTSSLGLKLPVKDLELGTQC
Experiment: GlyT2 inhibitory activity: inhibition of [14C]-glycine uptake in COS-7 cells transfected with human GlyT2
Format: cell-based
Conditions: Cos-7 cells stably transfected with human GlyT2; 20 μM 14C-glycine, 2 h at 37° C.
Description: GlyT2 antagonist activity of representative compounds of the invention was determined in accordance with the assay described in the Examples and by measuring the ability of compounds to inhibit the uptake of [^14C]-glycine in COS-7 cells transfected with the human glycine transporter-2 (GlyT2). The GlyT2 antagonist activities of these representative compounds are set forth hereinafter in Table 1.
Cos-7 cells (African green monkey, kidney) from American Type Culture Collection were grown in DMEM supplemented with 10% fetal bovine serum. The entire coding region of the human GlyT2 cDNA was cloned into the mammalian expression vector pCINeo, and then stably transfected into Cos-7 cells. Transfection was performed essentially as described by T. W. Lovenberg et al. (Mol. Pharmacol. 1999, 55:1101-1107). Cells are grown to 70-80% confluence, removed from the plate with trypsin, and pelleted in a clinical centrifuge. The pellet is resuspended in 400 μL complete medium and transferred to an electroporation cuvette with a 0.4 cm gap between the electrodes (Bio-Rad, 165-2088). One microgram of supercoiled GlyT2 cDNA is added to the cells, and the suspension is mixed. The voltage for the electroporation is set at 0.25 kV, and the capacitance is set at 960 μF. After electroporation, the cuvette contents are diluted to 10 mL with complete medium, and 0.5 mL, 1.0 mL, 2.0 mL and remainder (−6.5 mL) portions are plated onto four 10-cm dishes. The cells are incubated 24 h before adding 600 μg/mL G418. Colonies that survive selection are isolated and tested for GlyT2 expression.
The day before the assay, the GlyT2 expressing cells were plated into 96-well scintillating microplates (Amersham, RPNQ 0160) at a density of approximately 20,000 cells per well. Cells were grown overnight at 37° C. in 5% CO2 and then washed once with 37° C. HEPES buffered saline (HBS: 150 mM NaCl, 20 mM HEPES, 1 mM CaCl2, 10 mM glucose, 5 mM KCl, 1 mM MgCl2; pH 7.4). Eighty microliters of 37° C. HBS was subsequently added to each well. Test solutions of GlyT2 inhibitors were prepared in HBS from DMSO stock solutions, and 5 μL of test solution was added to each test well. Total transport and non-specific background were determined by adding 5 μL HBS or 5 μL 2 M glycine, respectively, to the appropriate control wells. Plates were then left at room temperature for 5 min before the addition of 20 μL of 100 μM ^14C-glycine (NEN, NEC 048H) to each well for a final concentration of 20 μM. Plates were incubated for 2 h at 37° C. with 5% CO2. After 2 h the reaction mixtures were removed by aspiration, and the plates were washed once with ice-cold HBS. Plates were sealed with TopSeal (Packard, 6005185) and counted on a Packard TopCount® scintillation counter.

Question: For CC(C)Oc1ccccc1NCCNCc1cccc(C(=O)N2CCCCC2)c1 [Example 1, (3-{[2-(2-Isopropoxy-phenylamino)-ethylamino]-methyl}-phenyl)-piperidin-1-yl-methanone], which IC50 is on record?
Answer: 0.4 µM

Question: With CC(C)Oc1ccccc1NCCCNCc1cccc(C(=O)N2CCCCC2)c1 [Example 2, (3-{[3-(2-Isopropoxy-phenylamino)-propylamino]-methyl}-phenyl)-piperidin-1-yl-methanone] as the compound, how does the IC50 read?
Answer: 4 µM

Question: O=C(c1cccc(CNCCNc2ccccc2)c1)N1CCCCC1 [Example 3, {3-[(2-Phenylamino-ethylamino)-methyl]-phenyl}-piperidin-1-yl-methanone] was tested. Which IC50 did it give?
Answer: > 10 µM

Question: Which IC50 does the source give for O=C(c1cccc(CNCCNc2ccccc2O)c1)N1CCCCC1 [Example 4, (3-{[2-(2-Hydroxy-phenylamino)-ethylamino]-methyl}-phenyl)-piperidin-1-yl-methanone] here?
Answer: 20 µM

Question: Which IC50 does the source give for COc1ccccc1NCCNCc1cccc(C(=O)N2CCCCC2)c1 [Example 5, (3-{[2-(2-Methoxy-phenylamino)-ethylamino]-methyl}-phenyl)-piperidin-1-yl-methanone] here?
Answer: 2.5 µM

Question: CCC(CC)Oc1ccccc1NCCNCc1cccc(C(=O)N2CCCCC2)c1 [Example 6, [3-({2-[2-(1-Ethyl-propoxy)-phenylamino]-ethylamino}-methyl)-phenyl]-piperidin-1-yl-methanone] was tested. Which IC50 did it give?
Answer: 3 µM

Question: O=C(c1cccc(CNCCNc2ccccc2OC2CCCC2)c1)N1CCCCC1 [Example 7, (3-{[2-(2-Cyclopentyloxy-phenylamino)-ethylamino]-methyl}-phenyl)-piperidin-1-yl-methanone] was tested. Which IC50 did it give?
Answer: 1.2 µM

Question: With O=C(c1cccc(CNCCNc2ccccc2Oc2ccccc2)c1)N1CCCCC1 [Example 8, (3-{[2-(2-Phenoxy-phenylamino)-ethylamino]-methyl}-phenyl)-piperidin-1-yl-methanone] as the compound, how does the IC50 read?
Answer: 3 µM

Question: How did the IC50 turn out when COc1cccc(NCCNCc2cccc(C(=O)N3CCCCC3)c2)c1 [Example 9, (3-{[2-(3-Methoxy-phenylamino)-ethylamino]-methyl}-phenyl)-piperidin-1-yl-methanone] was run?
Answer: 0.8 µM

Question: With CC(C)Oc1cccc(NCCNCc2cccc(C(=O)N3CCCCC3)c2)c1 [Example 10, (3-{[2-(3-Isopropoxy-phenylamino)-ethylamino]-methyl}-phenyl)-piperidin-1-yl-methanone] as the compound, how does the IC50 read?
Answer: 1 µM

Question: For O=C(c1cccc(CNCCNc2ccccc2[N+](=O)[O-])c1)N1CCCCC1 [Example 11, (3-{[2-(2-Nitro-phenylamino)-ethylamino]-methyl}-phenyl)-piperidin-1-yl-methanone], which IC50 is on record?
Answer: 5 µM

Question: Nc1ccccc1NCCNCc1cccc(C(=O)N2CCCCC2)c1 [Example 12, (3-{[2-(2-Amino-phenylamino)-ethylamino]-methyl}-phenyl)-piperidin-1-yl-methanone] was tested. Which IC50 did it give?
Answer: > 10 µM

Question: For CC(C)Nc1ccccc1NCCNCc1cccc(C(=O)N2CCCCC2)c1 [Example 13, (3-{[2-(2-Isopropylamino-phenylamino)-ethylamino]-methyl}-phenyl)-piperidin-1-yl-methanone], which IC50 is on record?
Answer: 0.55 µM

Question: For CS(=O)(=O)Nc1ccccc1NCCNCc1cccc(C(=O)N2CCCCC2)c1 [Example 14, N-(2-{2-[3-(Piperidine-1-carbonyl)-benzylamino]-ethylamino}-phenyl)methanesulfonamide], which IC50 is on record?
Answer: 3.1 µM

Question: With O=C(Nc1ccccc1)Nc1ccccc1NCCNCc1cccc(C(=O)N2CCCCC2)c1 [Example 15, 1-Phenyl-3-(2-{2-[3-(piperidine-1-carbonyl)-benzylamino]-ethylamino}-phenyl)-urea] as the compound, how does the IC50 read?
Answer: > 10 µM

Question: Which IC50 does the source give for O=C(NCc1ccccc1)Nc1ccccc1NCCNCc1cccc(C(=O)N2CCCCC2)c1 [Example 16, 1-Benzyl-3-(2-{2-[3-(piperidine-1-carbonyl)-benzylamino]-ethylamino}-phenyl)-urea] here?
Answer: 3.1 µM

Question: With O=C(c1cccc(CNCCNc2ccccc2Br)c1)N1CCCCC1 [Example 17, (3-{[2-(2-Bromo-phenylamino)-ethylamino]-methyl}-phenyl)-piperidin-1-yl-methanone] as the compound, how does the IC50 read?
Answer: 1 µM

Question: Which IC50 does the source give for O=C(c1cccc(CNCCNc2cccc(Br)c2)c1)N1CCCCC1 [Example 18, (3-{[2-(3-Bromo-phenylamino)-ethylamino]-methyl}-phenyl)-piperidin-1-yl-methanone] here?
Answer: 3.1 µM

Question: For O=C(c1cccc(CNCCNc2ccccc2Cl)c1)N1CCCCC1 [Example 19, (3-{[2-(2-Chloro-phenylamino)-ethylamino]-methyl}-phenyl)-piperidin-1-yl-methanone], which IC50 is on record?
Answer: 1.2 µM

Question: With O=C(c1cccc(CNCCNc2cccc(Cl)c2)c1)N1CCCCC1 [Example 20, (3-{[2-(3-Chloro-phenylamino)-ethylamino]-methyl}-phenyl)-piperidin-1-yl-methanone] as the compound, how does the IC50 read?
Answer: 3.1 µM

Question: With CC(C)c1ccccc1NCCNCc1cccc(C(=O)N2CCCCC2)c1 [Example 21, (3-{[2-(2-Isopropyl-phenylamino)-ethylamino]-methyl}-phenyl)-piperidin-1-yl-methanone] as the compound, how does the IC50 read?
Answer: 2.5 µM

Question: Which IC50 does the source give for COc1ccccc1-c1ccccc1NCCNCc1cccc(C(=O)N2CCCCC2)c1 [Example 22, (3-{[2-(2′-Methoxy-biphenyl-2-ylamino)-ethylamino]-methyl}-phenyl)-piperidin-1-yl-methanone] here?
Answer: > 10 µM

Question: How did the IC50 turn out when O=C(c1cccc(CNCCNc2ccccc2-c2ccsc2)c1)N1CCCCC1 [Example 23, Piperidin-1-yl-(3-{[2-(2-thiophen-3-yl-phenylamino)-ethylamino]-methyl}-phenyl)-methanone] was run?
Answer: 0.955 µM

Question: Which IC50 does the source give for CC(C)Oc1ccccc1OCCNCc1cccc(C(=O)N2CCCCC2)c1 [Example 24, (3-{[2-(2-Isopropoxy-phenoxy)-ethylamino]-methyl}-phenyl)-piperidin-1-yl-methanone] here?
Answer: 0.4 µM

Question: For CC(C)Oc1ccccc1OCCCNCc1cccc(C(=O)N2CCCCC2)c1 [Example 25, (3-{[3-(2-Isopropoxy-phenoxy)-propylamino]-methyl}-phenyl)-piperidin-1-yl-methanone], which IC50 is on record?
Answer: 0.4 µM

Question: How did the IC50 turn out when CC(C)Oc1cccc(OCCNCc2cccc(C(=O)N3CCCCC3)c2)c1 [Example 26, (3-{[2-(3-Isopropoxy-phenoxy)-ethylamino]-methyl}-phenyl)-piperidin-1-yl-methanone] was run?
Answer: 7.5 µM

Question: CC(C)Oc1ccccc1NCCN(C)Cc1cccc(C(=O)N2CCCCC2)c1 [Example 27, [3-({[2-(2-Isopropoxy-phenylamino)-ethyl]-methyl-amino}-methyl)-phenyl]-piperidinyl-methanone] was tested. Which IC50 did it give?
Answer: 11 µM

Question: How did the IC50 turn out when CC(C)Oc1ccccc1N(C)CCNCc1cccc(C(=O)N2CCCCC2)c1 [Example 28, [3-({2-[(2-Isopropoxy-phenyl)-methyl-amino]-ethylamino}-methyl)-phenyl]-piperidinyl-methanone] was run?
Answer: 3.5 µM

Question: Which IC50 does the source give for CC(C)Oc1ccccc1N(C)CCN(C)Cc1cccc(C(=O)N2CCCCC2)c1 [Example 29, {3-[({2-[(2-Isopropoxy-phenyl)-methyl-amino]-ethyl}-methyl-amino)-methyl]-phenyl}-piperidin-1-yl-methanone] here?
Answer: > 10 µM
